Reference: PMC11277489, “Novel Piperazine Derivatives of Vindoline as Anticancer Agents” (International Journal of Molecular Sciences, 2024)

Columns and labels:
[1] = system: 60 human tumor cell lines (NCI60); assay: NCI60 one-dose screen (10 μM), whole panel; format: cell-based; settings: 10 μM one-dose, NCI60
SiHa cell line = system: SiHa cell line; design: method as in PMID 32102414; settings: cited from earlier work

CCC12C=CCN3CCC4(c5cc(N)c(OC)cc5N(C)C4C(O)(C(=O)OC)C1OC(C)=O)C32 (centres unmarked) [Compound 11, 10-aminovindoline]
antiproliferative effect (in words) [1]: a notable antiproliferative effect was not shown

CC[C@]12C=CCN3CC[C@@]4(c5ccc(OC)cc5N(C)[C@H]4[C@@](O)(C(=O)OC)[C@@H]1OC(=O)CCCN1CCN(CCCC(=O)O[C@@H]4[C@]5(CC)C=CCN6CC[C@@]7(c8ccc(OC)cc8N(C)[C@H]7[C@@]4(O)C(=O)OC)[C@@H]65)CC1)[C@@H]32 [Compound 4]
IC50 (SiHa cell line): 2850 nM
